Assay results from patent US6727244B2, “Mammalian metabolites of a tachykinin receptor antagonist” (Merck & Co., Inc., priority 2000, dated 2004).

Columns and labels:
[1] = glucuronidation in liver microsomes from rats; assay type: in vitro ADME; conditions: rat liver microsomes, UDPGA, 37° C. for 60 min
Experimental: All liver microsomal and cytosolic fractions were prepared using the following procedure. Thawed livers were homogenized with 2 volumes of 50 mM Tris-buffer (pH 7.5) containing 1.15% KCl. For microsomal and cytosolic preparations, the homogenate was centrifuged for 20 min at 9,000×g and the resulting supernatant was centrifuged for 60 min at 105,000×g. The resulting cytosolic fractions were re-centrifuged at 105,000×g for 60 min. Fractions of cytosol were aliquoted into small tubes and stored at −70° C. Subsequently, the microsomal pellets were washed with 10 mM EDTA containing 1.15% KCl and were centrifuged at 105,000×g for 60 min. […] Protein concentrations were determined by a modified Lowry assay (Smith et al., 1985). The specific cytochrome P450 content in each microsomal preparation was measured as described by Omura and Sato, J. Biol. Chem. 239, 2370-2378 (1964).
The typical reaction mixture (500 μl) containing 10 mM MgCl2, 2% glycerol, 0.02% lubrol PX, 3 mM UDPGA, 1 mg liver microsomes, 50 mM bis-tris propane buffer (pH 8.5) and ˜10 or 25 μM compound (in 15 μl methanol) was incubated at 37° C. for 30-60 min. After incubation, the reactions were terminated by the addition of four volumes of acetonitrile and processed and analyzed by HPLC as mentioned above.

[2] = metabolism in primary cultures of rat hepatocytes; assay type: in vitro ADME; conditions: after 6 hr
Experimental: Hepatocytes were harvested from male Sprague-Dawley rat livers or human livers and cultured on a matrigel support and treated with 0.1 μM dexamethasone or 50 μM rifampicin, respectively, for 48 hr prior to the addition of the test compounds. A 2.5 mM stock solution of [^14C]2-(R)-(1-(R)-(3,5-bis(trifluoromethyl)-phenyl)ethoxy)-3-(S)-(4-fluoro)phenyl-4-(3-(5-oxo-1H,4H-1,2,4-triazolo)methylmorpholine, [^14C]M-1 or [^14C]M-2 in DMSO was added to the plates such that the final concentration of test compound was 25 μM and DMSO was 1% (v/v). The cultures were incubated for 4, 6 or 24 hr for rat hepatocytes and 48 hr for human hepatocytes. The incubation mixtures (500 μL) contained 10 μM of test compound, 100 mM phosphate buffer pH 7.4, NADPH-regenerating system, microsomes containing expressed CYP isoforms (CYP1A2, CYP2A6, CYP2B6, CYP2C8, CYP2C9, CYP2C19, CYP2D6, CYP2E1 or CYP3A4) and cytochrome P-450 reductase. The reactions were initiated by adding NADP and proceeded at 37° C. for 15-45 min. […]
Method A was conducted on a Shimadzu HPLC system (Shimadzu Scientific Instruments Inc., Columbia Md.). The parent compounds and their metabolites were monitored directly using a radiometric detector (INUS Systems Inc. Tampa, Fla.) and Ultima-Flow M (Packard Instrument Co., Meridan Conn.) as scintillant at a flow rate of 3 mL/min. […]

C[C@@H](O[C@H]1OCCN[C@H]1c1ccc(F)cc1)c1cc(C(F)(F)F)cc(C(F)(F)F)c1 [Metabolite M-1, (2R,3S)-2-[(1R)-1-[3,5-bis(trifluoromethyl)phenyl]ethoxy]-3-(4-fluorophenyl)morpholine]
conversion to the corresponding glucuronide [1]: ~20%
metabolism in rat hepatocyte cultures [2]: extensively metabolized
